Measurements published in patent publication US20150216794A1, “METHODS OF TREATING PAIN ASSOCIATED WITH OSTEOARTHRITIS OF A JOINT WITH A TOPICAL FORMULATION OF A SPIRO-OXINDOLE COMPOUND” (IVAX International GmbH, priority 2014, published 2015).
“And” between values parts separate entries of the source, which are not always exact repeats. Equal values may be shown once.

Tests used:
[1] = domestic pig joint penetration study: concentration in plasma; format: in vivo; settings: for concentration in plasma, individual animals: 3.0 μL/cm^2 bid
Experimental: (§1) This study was conducted to evaluate the joint penetration, systemic plasma exposure and tissue distribution of the spiro-oxindole compound in domestic pigs following topical administration of a pharmaceutical composition utilized in the methods of the invention. Fifteen female pigs were used in this study with three pigs in each group. Beginning on Day 1, a pharmaceutical composition of the invention was topically applied to the left radiocarpal joint (carpus) and tibiotarsal joint (hock) twice daily (bid) for 17 days (34 applications) for Groups 1-4 and once daily (qd) for 17 days (17 applications) for Group 5. Pre-dose blood samples (prior to morning dosing) was collected on Days 2, 7, 10, 14 and 17. A full pharmacokinetic sampling was performed on Day 17 (post am dosing) at the following time points: 1, 2, 4, 8 and 12 hr. On the day of necropsy, Day 18, blood was collected prior to euthanasia, each pig was humanely euthanized and dorsal skin and muscle, liver, kidney, heart, lung, brain, intestine, fat, ovaries, urinary bladder, sciatic nerve, and skin, muscle, synovial membrane, and synovial fluid from all 4 joints (2 treated, left carpus and hock, and 2 untreated, right carpus and hock) was collected.
(§2) The dose volume (μL/cm^2) for the test pharmaceutical compositions was 3.0 μL/cm^2 for Groups 1, 2, 3 and 5 and 1.0 μL/cm^2 for Group 4.
Approximately 2 mL of whole blood was collected prior to the morning dose administration on Days 2, 7, 10, 14 and 17. A full pharmacokinetic profile sampling was performed on Day 17 after the morning dose administration at the following time points: 1, 2, 4, 8 and 12 hr. On the day of necropsy, Day 18, blood was collected prior to euthanasia.

[2] = tested on: complete Freund's adjuvant (CFA) model of inflammatory pain; experiment: CFA model of inflammatory pain; format: in vivo, rat; settings: topical, dose-response; model not restated (follows CFA paragraph)
[3] = minipig: metabolite profile of urine and bile (UPLC); format: in vivo, Göttingen minipig; settings: none consistent with spiro-oxindole compound
Description: Attempts to separate radioactive components using HPLC with radioactivity detection present in plasma, liver and excreta were unsuccessful due to low radioactivity levels in samples submitted for further analysis.

[4] = minipig: tissue distribution of radioactivity and unchanged compound; format: in vivo, Göttingen minipig; settings: for concentration at 24 h: male, Göttingen, minipig, topical, 70 mg spiro-oxindole compound equivalents ointment/kg
Description: The following tissues/organs were removed from the remaining carcass:
The urinary bladder from each animal was rinsed with saline and the washings discarded. Each section of the gastrointestinal tract wall was washed to remove contents (which were retained for analysis) prior to analysis. Remaining carcasses were discarded.

[5] = previous topical clinical studies (PHN and EM) overall; settings: human, in vivo
Experimental: Although not previously studied in patients with osteoarthritis, a topical formulation of the spiro-oxindole compound of the invention has been tested in clinical studies and was well tolerated by patients with postherpetic neuralgia (PHN) and erythromelalgia.
In general, the maximal concentrations of the spiro-oxindole compound following topical application are determined under “maximal use conditions,” taking into consideration such factors as ointment strength, application volume, application surface area, and frequency and duration of dosing.
Nevertheless, the exposure level anticipated in this study is expected to be higher than that observed in any single patient population administered a therapeutic dose a topical pharmaceutical composition of the invention. This study is therefore intended to help in the selection of a topical dose and regimen of a topical pharmaceutical composition of the invention.

[6] = domestic pig joint penetration: concentration in synovial membrane; format: in vivo
Experimental: as §1
Doses were calculated by measuring the joint circumference and joint width (to include ˜2 cm above and below the joint) to calculate the total surface area for each individual dose. Group 1 received a 2% pharmaceutical composition of the invention and the dose volume for Group 1 was calculated using the total surface area and the designated dose volume of 3 μL/cm^2. The total dose volume was then converted from μL to mL to estimate the dose weight in grams, based on the composition density of 1 g/cm^3. Following is an example (not actual measurements) of calculating the dose:
For Groups 2-5, the dose volume was calculated using the total surface area and the designated dose volume of 3 μL/cm^2 (Groups 2, 3 and 5) or 1 μL/cm^2 (Group 4). The total dose volume was then converted from μL to mL to estimate the dose length in centimeters of a ribbon of the pharmaceutical composition when squeezed from a glaminate tube onto a metal metric ruler, based on the composition length-weight relationship of 1 cm of pharmaceutical composition being equal to 0.5 g of the composition (diameter of the tube opening was 0.87 cm).
The test compositions were topically applied an equal distance above and below the center of the joint, i.e., inter-carpal joint space (carpus) and inter-tarsal joint space (hock) of each animal to allow for complete coverage of the joint, including approximately 2 cm above and below the edges of the joint. The test composition was applied to the entire circumference of the designated area. All animals were dosed using the same distance above and below each joint center for consistency.
as §2
The following tissue samples were collected after euthanasia: • Dorsal skin and muscle (from the mid-back) • Liver—Left Medial Lobe • Kidney—Right • Heart • Lung—Right diaphragmatic lobe • Brain—Right cerebral hemisphere • Intestine—mid-jejunum • Duodenum (10-15 cm length) from all 6 animals in Groups 1 and 2 • Fat • Ovary—Right • Urinary bladder • Sciatic nerve from both legs • Skin, muscle underlying site of administration and synovial membrane of all 4 joints (treated left carpus and hock and untreated right carpus and hock)

[7] = domestic pig, topical administration to a joint

concentration in plasma, individual animals ([1]; G1 (#1-#3): 2% composition, Day 2 Before dosing): 0.34 ng/mL | concentration in plasma, individual animals ([1]; G1 (#1-#3): 2% composition, Day 7 Before dosing): 0.97 ng/mL | concentration in plasma, individual animals ([1]; G1 (#1-#3): 2% composition, Day 10 Before dosing): 1.54 ng/mL | concentration in plasma, individual animals ([1]; G1 (#1-#3): 2% composition, Day 14 Before dosing): 1.10 ng/mL | concentration in plasma, individual animals ([1]; G1 (#1-#3): 2% composition, Day 17 1 hour after dosing): 1.21 ng/mL | concentration in plasma, individual animals ([1]; G1 (#1-#3): 2% composition, Day 17 2 hour after dosing): 1.07 ng/mL | concentration in plasma, individual animals ([1]; G1 (#1-#3): 2% composition, Day 17 4 hour after dosing): 1.04 ng/mL | concentration in plasma, individual animals ([1]; G1 (#1-#3): 2% composition, Day 17 8 hour after dosing): 1.30 ng/mL | concentration in plasma, individual animals ([1]; G1 (#1-#3): 2% composition, Day 17 12 hour after dosing): 11.38 ng/mL | concentration in plasma, individual animals ([1]; G1 (#1-#3): 2% composition, Day 17 Before dosing): 2.70 ng/mL | concentration in plasma, individual animals ([1]; G1 (#1-#3): 2% composition, Day 18): 1.60 ng/mL | concentration in plasma, individual animals ([1]; G2 (#4-#6): 4% composition, Day 2 Before dosing): 0.84 ng/mL and 0.86 ng/mL | concentration in plasma, individual animals ([1]; G2 (#4-#6): 4% composition, Day 7 Before dosing): 1.73 ng/mL | concentration in plasma, individual animals ([1]; G2 (#4-#6): 4% composition, Day 10 Before dosing): 1.79 ng/mL | concentration in plasma, individual animals ([1]; G2 (#4-#6): 4% composition, Day 14 Before dosing): 2.47 ng/mL | concentration in plasma, individual animals ([1]; G2 (#4-#6): 4% composition, Day 17 1 hour after dosing): 2.47 ng/mL | concentration in plasma, individual animals ([1]; G2 (#4-#6): 4% composition, Day 17 2 hour after dosing): 3.47 ng/mL | concentration in plasma, individual animals ([1]; G2 (#4-#6): 4% composition, Day 17 4 hour after dosing): 2.72 ng/mL | concentration in plasma, individual animals ([1]; G2 (#4-#6): 4% composition, Day 17 8 hour after dosing): 1.94 ng/mL | concentration in plasma, individual animals ([1]; G2 (#4-#6): 4% composition, Day 17 12 hour after dosing): 12.17 ng/mL and 15.72 ng/mL | concentration in plasma, individual animals ([1]; G2 (#4-#6): 4% composition, Day 17 Before dosing): 3.25 ng/mL | concentration in plasma, individual animals ([1]; G2 (#4-#6): 4% composition, Day 18): 5.41 ng/mL and 2.83 ng/mL | plasma concentration / systemic exposure (in words) [1, 7]: nanomolar | radioactive peaks observed by UPLC ([3]; bile (gall bladder contents)): another two peaks | radioactive peaks observed by UPLC ([3]; urine): two distinct peaks | tissue radioactivity concentrations in the majority of tissues analysed ([4]; limit of quantification ca 12-25 ng equivalents spiro-oxindole compound/g): below the limit of quantification | concentration at 24 h ([4]; heart): 17.5 ng/g | concentration at 24 h ([4]; liver): 11.3 ng/g | concentration at 24 h ([4]; skin from the dose site): 1860 ng/g | concentration at 24 h ([4]; white fat): 53.8 ng/g | highest observed individual plasma concentration [5]: 14.5 ng/mL | concentration in synovial membrane tissue, individual animals ([6]; G1 (#1-#3): 2% composition, 3.0 μL/cm^2 bid 17 days, Untreated right carpus): 70.83 ng/g and 84.97 ng/g and 44.47 ng/g | concentration in synovial membrane tissue, individual animals ([6]; G1 (#1-#3): 2% composition, 3.0 μL/cm^2 bid 17 days, Untreated right hock): 97.22 ng/g and 33.16 ng/g and 41.19 ng/g | concentration in synovial membrane tissue, individual animals ([6]; G2 (#4-#6): 4% composition, 3.0 μL/cm^2 bid 17 days, Untreated right hock): 92.75 ng/g and 69.80 ng/g and 98.28 ng/g | concentration in synovial membrane tissue, individual animals ([6]; G4 (#10-#12): 8% composition, 1.0 μL/cm^2 bid 17 days, Untreated right hock): 26.20 ng/g and 0.00 ng/g and 45.29 ng/g | concentration in synovial membrane tissue, individual animals ([6]; G5 (#13-#15): 8% composition, 3.0 μL/cm^2 qd 17 days, Untreated right carpus): 11.61 ng/g and 25.25 ng/g and 79.58 ng/g | concentration in synovial membrane tissue, individual animals ([6]; G5 (#13-#15): 8% composition, 3.0 μL/cm^2 qd 17 days, Untreated right hock): 18.69 ng/g and 37.98 ng/g and 21.70 ng/g | concentration in synovial membrane tissue of treated joint (in words) [6, 7]: micromolar concentrations
SMILES: O=C1N(Cc2ccc(C(F)(F)F)o2)c2ccccc2[C@]12COc1cc3c(cc12)OCO3 [spiro-oxindole compound, (S)-1′-{[5-(trifluoromethyl)furan-2-yl]methyl}spiro[furo[2,3-f][1,3]benzodioxole-7,3′-indol]-2′(1′H)one]
dose with greatest effect (highest dose tested) [2]: 8 % (w/w) | minimum effective dose [2]: 2 % (w/w) | concentration in synovial membrane tissue, individual animals ([6]; G1 (#1-#3): 2% composition, 3.0 μL/cm^2 bid 17 days, Treated left carpus): 126.88 ng/g and 56.86 ng/g and 105.89 ng/g | concentration in synovial membrane tissue, individual animals ([6]; G1 (#1-#3): 2% composition, 3.0 μL/cm^2 bid 17 days, Treated left hock): 152.13 ng/g and 38.86 ng/g and 54.04 ng/g | concentration in synovial membrane tissue, individual animals ([6]; G2 (#4-#6): 4% composition, 3.0 μL/cm^2 bid 17 days, Treated left carpus): 72.14 ng/g and 269.82 ng/g and 183.72 ng/g | concentration in synovial membrane tissue, individual animals ([6]; G2 (#4-#6): 4% composition, 3.0 μL/cm^2 bid 17 days, Treated left hock): 132.05 ng/g and 95.93 ng/g and 131.87 ng/g | concentration in synovial membrane tissue, individual animals ([6]; G2 (#4-#6): 4% composition, 3.0 μL/cm^2 bid 17 days, Untreated right carpus): 114.15 ng/g and 100.42 ng/g and 129.30 ng/g | concentration in synovial membrane tissue, individual animals ([6]; G3 (#7-#9): 8% composition, 3.0 μL/cm^2 bid 17 days, Treated left carpus): 708.62 ng/g and 737.86 ng/g and 137.46 ng/g | concentration in synovial membrane tissue, individual animals ([6]; G3 (#7-#9): 8% composition, 3.0 μL/cm^2 bid 17 days, Treated left hock): 252.46 ng/g and 576.83 ng/g and 1917.93 ng/g | concentration in synovial membrane tissue, individual animals ([6]; G3 (#7-#9): 8% composition, 3.0 μL/cm^2 bid 17 days, Untreated right carpus): 54.19 ng/g and 185.83 ng/g and 130.63 ng/g | concentration in synovial membrane tissue, individual animals ([6]; G3 (#7-#9): 8% composition, 3.0 μL/cm^2 bid 17 days, Untreated right hock): 82.74 ng/g and 737.82 ng/g and 167.55 ng/g | concentration in synovial membrane tissue, individual animals ([6]; G4 (#10-#12): 8% composition, 1.0 μL/cm^2 bid 17 days, Treated left carpus): 49.99 ng/g and 59.22 ng/g and 159.68 ng/g | concentration in synovial membrane tissue, individual animals ([6]; G4 (#10-#12): 8% composition, 1.0 μL/cm^2 bid 17 days, Treated left hock): 291.56 ng/g and 38.32 ng/g and 3171.10 ng/g | concentration in synovial membrane tissue, individual animals ([6]; G4 (#10-#12): 8% composition, 1.0 μL/cm^2 bid 17 days, Untreated right carpus): 34.85 ng/g and 1772.86 ng/g and 46.92 ng/g | concentration in synovial membrane tissue, individual animals ([6]; G5 (#13-#15): 8% composition, 3.0 μL/cm^2 qd 17 days, Treated left carpus): 702.22 ng/g and 150.00 ng/g and 35.31 ng/g | concentration in synovial membrane tissue, individual animals ([6]; G5 (#13-#15): 8% composition, 3.0 μL/cm^2 qd 17 days, Treated left hock): 31.44 ng/g and 100.00 ng/g and 55.90 ng/g
